# Assay results published in PMC8739956 (Frontiers in Oncology, 2021).
# “Also recorded” adds a separate entry of the source. Where two headings read alike, the source gives them in different places.
# Experiments:
# [1] = cited from earlier work
# [2] = cited from earlier work; remark: listed apart in the source
# [3] = test system: DLBCL; conditions: 14-d ibrutinib therapy before TEDDI-R; cited from earlier work
# [4] = design: method as in PMID 32583848; conditions: cited from earlier work; for Mean CSF (trough concentration): PCNSL patients
# [5] = test system: diffuse large B-cell lymphoma (DLBCL); test: Clinical response of DLBCL patients (Lugano 2014 / 2005 IELSG criteria); format: in vivo, human; conditions: for MRI lesion in the cerebellum: case 5, zanubrutinib monotherapy
# Description: Patients with treatment-naive and relapsed/refractory DLBCL were enrolled in this study. […] The exclusion criteria were as follows: severe disease complications or serious comorbidities; active infection; uncontrolled bleeding events; and pregnancy or lactation in women.
# The dose of zanubrutinib was fixed at 160 mg twice per day in all patients. Treatment duration and the combined drugs/regimens were decided by the clinicians.
# Four regimens were evaluated in this study: Regimen 1, zanubrutinib + rituximab in primary vitreoretinal lymphoma (PVRL) (zanubrutinib at 160 mg twice per day until disease progression or intolerance and rituximab at 375 mg/m^2 every 21 days); Regimen 2, zanubrutinib combined with high-dose methotrexate with or without cytarabine (HD-MTX regimen/MA regimen) in CNSL (methotrexate at 3.5–5.0 g/m^2 d1 and cytarabine at […] every 12 h on d2 and d3, every 21 days per cycle); Regimen 3, zanubrutinib combined with dexamethasone, ifosfamide, carboplatin, and etoposide (DICE) or dexamethasone, cytarabine, and cis-platinum (DHAP) in relapsed and refractory patients every 21 days per cycle as prescribed for the salvage chemotherapy of autologous stem cell transplantation (ASCT); and Regimen 4, zanubrutinib combined with rituximab, cyclophosphamide, epirubicin, vindesine, and prednisone (R-CHOP) for eight cycles as an initial treatment in IVLBCL.
# The clinical response was assessed based on the Lugano 2014 Criteria for DBLCL and 2005 IELSG Criteria for PCNSL ([24], [25]). AEs were recorded and assessed according to the Common Terminology Criteria for Adverse Events (CTCAE) v4.0.
# Continuous variables were expressed as median and range and compared by Mann–Whitney U-test. Categorical variables were reported as percentages and compared by chi-squared test. The duration of response (DOR) was determined using the Kaplan–Meier method. Statistical analyses were performed with SPSS 25.0 (IBM, NY, USA) or Prism 7.0 (GraphPad, CA, USA). P < 0.05 was considered statistically significant.
# [6] = test system: IL-10; test: CSF IL-10 concentration during treatment; format: in vivo, human; conditions: case 6, zanubrutinib monotherapy for 7 d
# [7] = LC-MS/MS quantification of zanubrutinib in time-matched plasma and CSF samples of patients; format: in vivo, human; conditions: for concentration at 12 h: read-out: Trough CSF concentration
# Description: Zanubrutinib is absorbed rapidly with a median time to maximum concentration of 2 h. Blood and CSF samples were collected at 2 or 3 h after the oral administration of zanubrutinib at 160 mg. Zanubrutinib administration was performed for more than 7 d. Additional plasma and CSF specimens for trough concentration testing were collected just before zanubrutinib administration (i.e., 12 h after the last zanubrutinib dose). Biological samples were stored at −20°C for a maximum of one month before analysis.
# Zanubrutinib in CSF and sodium heparin plasma samples was quantified by LC-MS/MS. Zanubrutinib standard was obtained from Beigene (Beijing, China). Methanol, methanoic acid, and acetonitrile (high-performance liquid chromatography gradient grade) were purchased from Fisher Scientific, USA. Ultrapure water was obtained using a Milli-Q purification system (Millipore, MA, USA). Control plasma and CSF samples for standards and quality control were obtained from patients treated in the department of hematology of PUMCH. The detailed LC-MS/MS procedure is described in the Supplementary Material .
# Zanubrutinib solutions were prepared at a concentration of 1 mg/ml in methanol and further diluted with methanol to obtain working solutions at concentrations of 100–1,000,000 pg/ml. Biological samples (50 µl) were mixed with 10 µl of methanol and 100 µl of acetonitrile. The mixed samples were centrifuged at 2,500 rpm for 3 min at room temperature and at 17,500 rpm for 10 min at 2°C–8°C. The supernatant (120 μl) was then injected into the chromatography system at room temperature.
# The analytes were analyzed by reverse-phase chromatography using an UPLC XevoTQ-XS system (Waters Corp., Milford, MA, USA) equipped with an ACQUUITY UPLC®BEH C18 column (2.1×50 mm, 1.7 μm; Waters Corp.). The mobile phase consisted of 0.1% formic acid in acetonitrile and ultrapure water. A mass spectrometer was used in positive mode with an electrospray ionization source. Multiple reaction monitoring mode was used to detect analytes and internal standards.
# To create a stock solution of zanubrutinib with a concentration of 1 mg/ml, zanubrutinib (4.55 mg) was added to methanol (4.55 ml). The standard working solution and quality control standard solution of zanubrutinib were then obtained by diluting the stock solution to 1 μg/ml with methanol. To establish the standard curve, the blank control samples of plasma and CSF were added into 50-μl EP tubes followed by the addition of 10 μl standard working solution with different concentrations (see the table below).
# The concentrations of analytes in CSF and plasma samples were obtained from the calibration curve constructed by plotting the peak area ratio of each analyte to the internal standard against the concentration. The analyte concentrations in the samples were calculated by linear regression.
# [8] = design: method as in package insert; conditions: ref package insert, cited from earlier work
# [9] = test system: TMD8; conditions: ABC DLBCL lines in vitro (TMD8); cited from earlier work
# [10] = test system: DLBCL; conditions: cited from earlier work
# [11] = test system: CNSL; conditions: high risk group, prophylaxis; cited from earlier work
# [12] = relapsed non-GCB DLBCL, phase 2, 41 patients
structure (smiles),measurement,setting,value
"C=CC(=O)N1CCC[C@@H](n2nc(-c3ccc(Oc4ccccc4)cc3)c3c(N)ncnc32)C1 [Ibrutinib, ibrutinib]",Mean Plasma,[1]; 560mg qd,53.7 ng/mL
same,Mean Plasma,[1]; 700mg qd,217.4 ng/mL
same,Mean Plasma,[1]; 840mg qd,875.6 ng/mL
same,Protein binding,[2]; ibrutinib,97.3%
same,Patients with disease improvement after monotherapy,[3],94%
CC#CC(=O)N1CC[C@@H](n2c(=O)n(-c3ccc(Oc4ccccc4)cc3)c3c(N)ncnc32)C1 [Tirabrutinib],Mean CSF (trough concentration),[4]; 320mg qd,2.19 ng/mL
same,Mean CSF (trough concentration),"[4]; 320mg qd, listed as tirabrutinib",2.19 ± 0.476 ng/mL
same,Mean Plasma,[4]; 320mg qd,16.3 ng/mL
same,Mean CSF (trough concentration),[4]; 480mg qd,14.0 ng/mL
same,Mean CSF (trough concentration),"[4]; 480mg qd, listed as tirabrutinib",14.0 ± 8.92 ng/mL
same,Mean Plasma,[4]; 480mg qd,77.0 ng/mL
C=CC(=O)N1CCC([C@@H]2CCNc3c(C(N)=O)c(-c4ccc(Oc5ccccc5)cc4)nn32)CC1 [Zanubrutinib],MRI lesion in the cerebellum,[5],shrank and disappeared within three weeks
same,MRI lesion in the cerebellum,[5]; listed as zanubrutinib,the mass shrank and disappeared
same,Response to monotherapy as lead-in therapy,"[5]; two relapsed PCNSL cases, monotherapy before combination chemotherapy",rapid and dramatic response; also recorded: significant disease control within 14 d
same,CSF IL-10 concentration,[6],dramatically decreased
same,Mean CSF,[7]; 160mg bid,2.94 ng/mL
same,Mean Plasma,[7]; 160mg bid,143.2 ng/mL
same,Samples with peak CSF concentration above the IC50 values,[7]; 22/23 samples,95.7%
same,Corrected CSF/plasma ratio,"[7]; corrected for 94% protein binding, entire series, 23 samples",42.7 ± 27.7%
same,Corrected CSF/plasma ratio,"[7]; corrected for 94% protein binding, entire series, 23 samples, listed as zanubrutinib",42.7% ± 27.7%
same,Mean plasma concentration,"[7]; entire series, 23 samples, peak time point 2-3 h after 160 mg oral, 160 mg twice per day",143.1906 ± 93.3027 ng/mL
same,concentration at 2 h,"[7]; human, CSF, oral, 160 mg, 2 h after administration, 10 samples, read-out: Mean CSF concentration",4.12 ± 2.86 ng/mL
same,concentration at 3 h,"[7]; human, CSF, oral, 160 mg, 3 h after administration, 13 samples, read-out: Mean CSF concentration",2.43 ± 2.03 ng/mL
same,concentration at 12 h,"[7]; human, CSF, oral, 160 mg, case 1, 12 h after the last dose",0.267 ng/mL
same,concentration at 12 h,"[7]; human, CSF, oral, 160 mg, case 3, 12 h after the last dose",5.02 ng/mL
same,Kp at 2 h,"[7]; human, CSF/plasma, oral, 160 mg, 2 h after administration, 10 samples, read-out: Corrected CSF/plasma ratio",0.412 ± 0.325
same,Kp at 3 h,"[7]; human, CSF/plasma, oral, 160 mg, 3 h after administration, 13 samples, read-out: Corrected CSF/plasma ratio",0.433 ± 0.265
same,Kp,"[7]; human, CSF/plasma, oral, 160 mg, corrected for 94% protein binding, entire series, 23 samples, read-out: Corrected CSF/plasma ratio",~0.4
same,Kp,"[7]; human, CSF/plasma, oral, 160 mg, corrected for 94% protein binding, entire series, read-out: Corrected CSF/plasma ratio, range",0.086 to 1.06
same,Kp,"[7]; human, CSF/plasma, oral, 160 mg, not corrected for protein binding, read-out: CSF/plasma ratio",~0.02
same,Kp,"[7]; human, CSF/plasma, oral, 160 mg, not corrected for protein binding, read-out: CSF/plasma ratio, range",0.0061 to 0.0583
same,Kp,"[7]; human, CSF/plasma, oral, 160 mg, six patients with repeated samples in different cycles, read-out: CSF/plasma ratio, range among patients",0.105 to 0.781
same,concentration at 2 h,"[7]; human, plasma, oral, 160 mg, 2 h after administration, 10 samples, read-out: Mean plasma concentration",183 ± 91.1 ng/mL
same,concentration at 3 h,"[7]; human, plasma, oral, 160 mg, 3 h after administration, 13 samples, read-out: Mean plasma concentration",126 ± 91.6 ng/mL
same,Median time to maximum concentration,[8],2 h
same,Median time to maximum concentration,[8]; listed as zanubrutinib,approximately 2 h
same,IC50,[9],0.4 nM
same,Protein binding rate,"[2]; zanubrutinib, no reference given",94%
same,Patients who achieved remission,[10]; among 75 patients with non-Hodgkin lymphoma (including 23 with DLBCL),14
same,ORR,"[10]; relapsed non-GCB DLBCL, phase 2, 41 patients, median follow-up 6.8 months",29.3%
same,"AEs leading to treatment discontinuation, patients",[10]; [12],four
same,Complete response rate,[10]; [12],17.1%
"CN(Cc1cnc2nc(N)nc(N)c2n1)c1ccc(C(=O)N[C@@H](CCC(=O)O)C(=O)O)cc1 [high-dose MTX, methotrexate]",CNS relapsing rate,[11],> 10%
